Reference: patent US6410704B1 (priority 1991, dated 2002)

Target: herpes protease (HSV-1 UL26 product, Pra) (Human herpesvirus 1, UniProt P10210)
Assay type: biochemical

Sequence of herpes protease (HSV-1 UL26 product, Pra) (P10210 whole entry, looked up): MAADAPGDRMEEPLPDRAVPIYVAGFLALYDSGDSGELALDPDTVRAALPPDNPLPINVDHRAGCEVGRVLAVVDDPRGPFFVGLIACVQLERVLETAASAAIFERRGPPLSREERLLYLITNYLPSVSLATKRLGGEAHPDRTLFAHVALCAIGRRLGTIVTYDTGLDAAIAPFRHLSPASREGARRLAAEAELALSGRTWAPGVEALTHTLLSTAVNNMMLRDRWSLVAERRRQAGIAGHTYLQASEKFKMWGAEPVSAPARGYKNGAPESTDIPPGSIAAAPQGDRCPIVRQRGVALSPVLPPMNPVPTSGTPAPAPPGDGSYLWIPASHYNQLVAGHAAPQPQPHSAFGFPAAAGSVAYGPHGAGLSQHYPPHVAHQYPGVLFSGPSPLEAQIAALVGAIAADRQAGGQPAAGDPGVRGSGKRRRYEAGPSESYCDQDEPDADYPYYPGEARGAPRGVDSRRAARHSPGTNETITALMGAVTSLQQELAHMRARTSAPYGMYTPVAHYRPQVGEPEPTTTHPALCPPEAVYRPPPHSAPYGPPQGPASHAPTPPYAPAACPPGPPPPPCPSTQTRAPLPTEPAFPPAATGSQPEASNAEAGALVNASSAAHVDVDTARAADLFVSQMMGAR

| SMILES | inhibition of the protease self-cleavage | inhibition of the protease [%] |
| --- | --- | --- |
| O=S(=O)(F)Cc1ccccc1 [Phenylmethansulfonyl fluoride] | partially inhibiting | – |
| CC(C)C[C@H](NC(=O)[C@@H](NC(=O)N[C@@H](Cc1ccccc1)C(=O)O)[C@@H]1CCN=C(N)N1)C(=O)N[C@H](C=O)Cc1ccccc1 [chymostatin] | – | 100 |
| CCCCCCCCCCCCOS(=O)(=O)[O-].[Na+] [SDS, sodium dodecyl sulphate] | 100% | – |
